# Experimental data published in publication PMC9099121, “Population pharmacokinetic and exposure‐response analyses from ALTA‐1L: Model‐based analyses supporting the brigatinib dose in ALK‐positive NSCLC” (Clinical and Translational Science, 2022).
# Assays:
# [1] = Population PK model (Bayesian re-estimation), brigatinib arm of ALTA-1L (first-line); type: in vivo, human; conditions: geometric mean (5th and 95th percentiles)
# Procedure: The population PK and exposure‐response analyses evaluated data from the brigatinib arm (180 mg q.d. with a 7‐day lead‐in at 90 mg q.d.) of the ALTA‐1L trial (second interim analysis, data cutoff date: June 28, 2019).[8] […] Blood samples for measurement of brigatinib plasma concentrations were obtained predose on day 1 of cycle one (28 day/cycle); predose and 1, 4, and 6 to 8 h postdose on day 1 of cycle two; and predose and any time between 1 and 8 h postdose on day 1 of cycles three, four, and five. Plasma samples were analyzed for brigatinib concentrations using a validated liquid chromatography/tandem mass spectrometry assay with a lower limit of quantification of 5 ng/mL. Efficacy assessments were based on computed tomography or magnetic resonance imaging performed at screening, every 8 weeks through cycle 14, and then every 12 weeks through treatment discontinuation.[8] Safety data were collected as they were reported.
# The previously developed population PK model[11] was used for population PK analyses of ALTA‐1L data. The previous analysis provided a robust and comprehensive characterization of brigatinib PK and sources of variability. Importantly, the previous analysis included 202 patients with ALK+ NSCLC that progressed on other ALK TKIs, representing a similar patient population to patients receiving first‐line brigatinib in ALTA‐1L. These considerations supported a Bayesian re‐estimation approach for deriving individual brigatinib PK parameters in ALTA‐1L using the previously reported model, and the model was applied without modification. In brief, the population PK model described brigatinib PK using a three‐compartment model with linear distribution and elimination kinetics and first‐order absorption preceded by a set of transit compartments.[11] The model included albumin concentration as a covariate on apparent oral clearance (CL/F). Bayesian re‐estimation was performed by setting initial model conditions to values of fixed effects and random effect variances previously estimated,[11] allowing for estimation of individual PK parameters based on the PK observations in the ALTA‐1L dataset.
# Diagnostic plots were created to compare brigatinib PK in patients in ALTA‐1L (first‐line setting) and ALTA (second‐line setting). […] In exploratory analyses, relationships between covariates of interest and model‐based exposure estimates were evaluated using linear regression models with each covariate as a predictor.
# ALK+ NSCLC = assay: Exposure-PFS analysis (Kaplan-Meier, Cox PH models), ALTA-1L; type: in vivo, human
# Procedure: Model‐based estimates of CL/F and actual dosing history were used to derive exposure metrics of interest. Several exposure metrics were considered, including both static and dynamic area under the concentration‐time curve (AUC) estimates (Methods S1).
# First, the relationship between PFS and two static exposure metrics, time‐averaged AUC between the last two disease assessment scans preceding progression or censoring and time‐averaged AUC until progression, was evaluated. These exposure‐PFS relationships were characterized by a proportional hazard (PH) model relating exposure to the hazard of PFS. The hazard function was expressed as: (1) λt=λ0te^β^TXi where λ 0 (t) is the baseline hazard function and Xi is a vector of predictor variables for an individual patient. The parameter vector β was estimated by maximum partial likelihood and captures the effect of exposure and/or additional covariates on the hazard of disease progression.
# Next, the relationship between PFS and two dynamic exposure metrics, daily time‐varying AUC between the last two disease assessment scans preceding progression or censoring and daily time‐varying AUC until progression, was evaluated. These analyses used a time‐dependent covariate Cox PH model relating time‐dependent exposure to PFS. The hazard function was expressed as: (2) λt=λ0te^β1×AUCDt+β^TXi where model parameters were as above in Equation 1, except that exposure (AUCDt ) was a time‐dependent predictor rather than a constant for each patient.
# For each static exposure‐PFS analysis, Kaplan‐Meier (KM) plots of PFS probability over time were generated and stratified by brigatinib exposure quartiles. Crizotinib PFS curves were overlaid for comparison.
# Dynamic daily time-averaged AUC between successive disease assessment scans preceding the event or censoring for PFS, obtained as the average of daily AUCs within each scan interval.
# Time averaged AUC until PFS= Cumulative dose to progressionOral brigatinib clearance/ (days to progression)
# [2] = test system: advanced ALK+ NSCLC that progressed on crizotinib; conditions: ALTA, cited from earlier work
# [3] = test system: advanced ALK inhibitor-naive ALK+ NSCLC; conditions: cited from earlier work
# [4] = 180 mg q.d. with 7-day lead-in at 90 mg q.d.
# [5] = patients with measurable baseline brain metastases
smiles,measurement,setting,value
COc1cc(N2CCC(N3CCN(C)CC3)CC2)ccc1Nc1ncc(Cl)c(Nc2ccccc2P(C)(C)=O)n1 [brigatinib],Albumin covariate effect on CL/F,[1]; ALTA-1L n = 123,"1.03 (0.874, 1.13)"
same,CL/F,[1]; ALTA-1L n = 123,"8.45 (4.04, 17.8) L/h"
same,Mean transit time,[1]; ALTA-1L n = 123,"1.01 (0.538, 2.36) h"
same,Q2/F,[1]; ALTA-1L n = 123,"12.6 (12.6, 12.6) L/h"
same,Q3/F,[1]; ALTA-1L n = 123,"2.67 (2.67, 2.67) L/h"
same,V1/F,[1]; ALTA-1L n = 123,"160 (69.0, 302) L"
same,V2/F,[1]; ALTA-1L n = 123,"118 (46.5, 283) L"
same,V3/F,[1]; ALTA-1L n = 123,"78.5 (78.5, 78.5) L"
same,AUC,"[1]; human, plasma, oral, maintenance dose 180 mg q.d., ALTA-1L, read-out: Daily steady-state post hoc AUC",21.3 µg·h/mL
same,Cox PH ratio for PFS versus exposure,"ALK+ NSCLC; dynamic metric: daily time-averaged AUC between successive disease assessments preceding PFS event or censoring, p = 0.08",1.02
same,Cox PH ratio for PFS versus exposure,"ALK+ NSCLC; dynamic metric: daily time-varying AUC preceding progression or censoring, p = 0.69",1.01 [0.98–1.03]
same,HR [95% CI] of disease progression or death per one-unit increase in exposure (Cox PH model),"ALK+ NSCLC; static metric: time-averaged AUC between the last two disease assessments, p = 0.01",1.03 [1.01–1.05]
same,IRC-assessed confirmed objective response rate (ORR),[2]; [4],56%
same,Median IRC-assessed progression-free survival (PFS),[2]; [4],16.7 months
same,IRC-assessed intracranial ORR (iORR),[2]; [5],67%
same,Median duration of (intracranial) response,[2]; [5],16.6 months
same,"Hazard ratio versus crizotinib (superiority, PFS)","[3]; ALTA-1L first interim analysis, 95% CI: 0.33–0.74, p < 0.001",0.49
same,"Early onset pulmonary events, patients",[3]; ALTA-1L,3%
same,Median PFS,[3]; ALTA-1L,≥ 2 years
same,Median time to first brigatinib dose reduction,[3]; ALTA-1L,~ 2 years
same,2-year intracranial PFS rate,"[3]; ALTA-1L, patients with any baseline brain metastases",48%
same,iORR,"[3]; second ALTA-1L interim analysis, patients with measurable baseline brain metastases",78%
